Laboratory results taken from patent US11903961B2, “Hemostatic agent and method of production thereof” (AMRITA VISHWA VIDYAPEETHAM, priority 2020, dated 2024).

Tested on: PPP (coagulation cascade)
Assay: PT, aPTT and TT studies on PPP (coagulation analyzer)
Assay type: biochemical
Details: rat PPP incubated 2 min with sample
Method: To confirm the role of third agent (Ca) (130) in the hemostatic composition, PT, a PTT and TT studies were performed using ST art 4, Diagnostica Stago, France. PPP was separated from anti-coagulated rat whole blood by centrifugation. PPP was incubated with the developed hemostatic composition for 2 min. For PT study, PPP from incubated sample was added to PT reagent in a cuvette placed in test area of coagulation analyzer and the time taken for PPP to clot was noted as PT. For a PTT study, PPP from incubated sample was further incubated with a PTT reagent after with cuvette was placed in test area and STA®-CaCl2 0.025M solution was added. Time taken for PPP to clot was noted as a PTT. For TT study, PPP from incubated sample was added to TT reagent in a cuvette placed in test area and the time taken for PPP to clot was noted as TT.

[Ca+2].[Cl-].[Cl-] [third agent, calcium chloride]
shorter: PT | TT | aPTT
